Results on 5 compounds are retold here after patent US8367360B2, “Method of screening for inhibitors of tau protein phosphororylation by tyrosine kinase c-Abl” (Proteome Sciences plc, priority 2004, dated 2013).

For assay [1], the system named is primary rat neuronal cultures. In words: Amyloid beta treatment of neurons and isolation of lipid rafts. The assay is classed as cell-based. How it is done:
Rat and human primary cortical neuronal cultures were treated with fibrillar Aβ25-35 or Aβ1-42 for 1-30 min. Lipid rafts were prepared from control untreated and Aβ-treated neuronal cultures by scraping the cells from one 80 cm^2 flask into 2 ml 1% Triton X-100 in 25 mM Mes, pH 6.5 containing protease inhibitors. Cells were disrupted by Dounce homgenization. The homogenate was mixed with 2 ml of 90% sucrose (w/v) in 25 mM Mes, 150 mM NaCl pH 6.5 and placed in a 12 ml centrifuge tube. A 5-35% step sucrose gradient was formed by overlaying the homogenate mix with 4 ml of a 35% (w/v) sucrose solution followed by 4 ml of a 5% (w/v) sucrose solution. This was then centrifuged at 39,000 rpm for 18 hr in a Beckman SW41 rotor. 1 ml fractions were collected from the top of each gradient. The lipid raft fraction partitioned at the interface between the 5% (w/v) sucrose layer and the 35% sucrose (w/v) layer, fractions 4 and 5. Lipid raft fractions were concentrated by mixing the raft fractions (4 and 5) with 10 ml dd H2O and centrifuging at 39,000 rpm for 2 h in a Beckman SW41 rotor. The supernatant was aspirated and the remaining pellet was resuspended in 100 μl of 2× sample buffer. Western blots of lipid raft proteins were probed for antibodies to flotillin and protein loading corrected by scanning densitometry. Tau was detected in lipid rafts by probing western blots of lipid raft proteins using a polyclonal anti-tau antibody (DAKO).

For assay [2], the target named is V5 tagged human tau mutant Y197F (human) (UniProt P10636). In words: cell-based or functional assay.
The target in assay [3] is V5 tagged human tau mutant Y394F (human) (UniProt P10636). In words: cell-based or functional assay.
The target of assay [4] is V5 tagged human tau mutant Y310F (human) (UniProt P10636). In words: cell-based or functional assay.
Assay [5] addresses V5 tagged human tau mutant Y18F (human) (UniProt P10636). In words: cell-based or functional assay.
Assay [6] deals with COS-7 cells transfected with V5 tagged human tau. In words: Phosphorylation of tyrosine residues in tau in cultured cells treated with pervanadate. The assay is classed as cell-based. To be noted: 20 minutes, Y394-only mutant and wild-type tau. The text has this:
In a first set of experiments, COS-7 cells were transiently transfected with V5 tagged human tau longest isoform or with V5 tagged mutants of tau where one tyrosine has been replaced by one phenylalanine (named Y18F, Y29F, Y197F, Y310F and Y394F) constructs. In a second set of experiments, COS-7 cells were transiently transfected with the V5 tagged tau (441) construct or with V5 tagged mutants of tau where only one tyrosine is remaining, the four other tyrosines being replaced by phenyalanine (named Y18-only, Y29-only, Y197-only, Y310-only and Y394-only according to the remaining tyrosine). In order to increase tau tyrosine phosphorylation, cells were treated with the tyrosine phosphatase inhibitor pervanadate for 20 minutes. Cells were harvested in NETF buffer (100 mM NaCl, 2 mM EGTA, 50 mM Tris-Cl pH 7,4 and 50 mM NaF) containing 1% NP-40, 2 mM orthovanadate and protease inhibitors. Samples were precleared with 40 μl of protein G-Sepharose beads, and immunoprecipitations were carried out with monoclonal anti-V5 antibodies preadsorbed on protein G-Sepharose beads. Cells were harvested in NETF lysis buffer containing 1% NP-40 and tau was immunoprecipitated using an anti-V5 antibody. […] Quantification was achieved by scanning the autoradiograms with GS710 Calibrated Imaging Densitometer (Bio-Rad) and measurement of relative optical density with Quantity One 4.0.3 software (Bio-Rad).

Where [7] appears, read: pre-treatment of neuronal cultures with inhibitor before exposure to Aβ.

“Also recorded” adds a separate entry of the source.

As for `CC(C)(C)n1nc(-c2ccc(Cl)cc2)c2c(N)ncnc21` [PP2], the “Aβ-induced increase in tyrosine phosphorylation of lipid raft proteins” value in assay [1] (inhibitor given with Aβ treatment, primary rat neuronal cultures, western blot of lipid rafts) is reported as “abrogated”. In assay [1] (setting [7]), the “Aβ-induced recruitment of Fyn to lipid rafts” value is “blocking of the recruitment” and the “Aβ-induced recruitment/partitioning of tau into lipid rafts” value is “abrogated; also recorded: blocking of the recruitment”.
In the case of “AblΔXB (a constitutively active form of Abl, with deletion of most of the SH3 domain) (enzyme)”, the tyrosine phosphorylation of immunoprecipitated tau (4G10 Western blot), CHO cells co-transfected with AblΔXB (% of the wild-type control) in assay [2] was 70; in assay [3], 25; in assay [4] it was 70.
Consider “Aβ1-42: fibrillar amyloid β-peptide 1-42 used to treat neurons”, for which the “tyrosine phosphorylation of neuronal protein components of lipid rafts” value in assay [1] (peptide treatment of primary rat neuronal cultures) is listed as “rapid increase”.
In the case of “Fyn tyrosine kinase (expressed from Fyn cDNA in CHO cells) (from UniProt P06241 1-537) (enzyme)”, the tyrosine phosphorylation of immunoprecipitated tau (4G10 Western blot), CHO cells co-transfected with Fyn (% of the wild-type control) in assay [5] and in assay [4] was 50 in each case.
In the case of pervanadate, the “tyrosine phosphorylation of tau (4G10 western on immunoprecipitated tau)” value in assay [6] is recorded as “induces an increase in tyrosine phosphorylation”.
